The values below come from US8211935B2, “Heterocyclic derivatives for modulation of calcium channels” (Vertex Pharmaceuticals Incorporated, priority 2004, dated 2012).

T1 sequence (Q00975 whole entry): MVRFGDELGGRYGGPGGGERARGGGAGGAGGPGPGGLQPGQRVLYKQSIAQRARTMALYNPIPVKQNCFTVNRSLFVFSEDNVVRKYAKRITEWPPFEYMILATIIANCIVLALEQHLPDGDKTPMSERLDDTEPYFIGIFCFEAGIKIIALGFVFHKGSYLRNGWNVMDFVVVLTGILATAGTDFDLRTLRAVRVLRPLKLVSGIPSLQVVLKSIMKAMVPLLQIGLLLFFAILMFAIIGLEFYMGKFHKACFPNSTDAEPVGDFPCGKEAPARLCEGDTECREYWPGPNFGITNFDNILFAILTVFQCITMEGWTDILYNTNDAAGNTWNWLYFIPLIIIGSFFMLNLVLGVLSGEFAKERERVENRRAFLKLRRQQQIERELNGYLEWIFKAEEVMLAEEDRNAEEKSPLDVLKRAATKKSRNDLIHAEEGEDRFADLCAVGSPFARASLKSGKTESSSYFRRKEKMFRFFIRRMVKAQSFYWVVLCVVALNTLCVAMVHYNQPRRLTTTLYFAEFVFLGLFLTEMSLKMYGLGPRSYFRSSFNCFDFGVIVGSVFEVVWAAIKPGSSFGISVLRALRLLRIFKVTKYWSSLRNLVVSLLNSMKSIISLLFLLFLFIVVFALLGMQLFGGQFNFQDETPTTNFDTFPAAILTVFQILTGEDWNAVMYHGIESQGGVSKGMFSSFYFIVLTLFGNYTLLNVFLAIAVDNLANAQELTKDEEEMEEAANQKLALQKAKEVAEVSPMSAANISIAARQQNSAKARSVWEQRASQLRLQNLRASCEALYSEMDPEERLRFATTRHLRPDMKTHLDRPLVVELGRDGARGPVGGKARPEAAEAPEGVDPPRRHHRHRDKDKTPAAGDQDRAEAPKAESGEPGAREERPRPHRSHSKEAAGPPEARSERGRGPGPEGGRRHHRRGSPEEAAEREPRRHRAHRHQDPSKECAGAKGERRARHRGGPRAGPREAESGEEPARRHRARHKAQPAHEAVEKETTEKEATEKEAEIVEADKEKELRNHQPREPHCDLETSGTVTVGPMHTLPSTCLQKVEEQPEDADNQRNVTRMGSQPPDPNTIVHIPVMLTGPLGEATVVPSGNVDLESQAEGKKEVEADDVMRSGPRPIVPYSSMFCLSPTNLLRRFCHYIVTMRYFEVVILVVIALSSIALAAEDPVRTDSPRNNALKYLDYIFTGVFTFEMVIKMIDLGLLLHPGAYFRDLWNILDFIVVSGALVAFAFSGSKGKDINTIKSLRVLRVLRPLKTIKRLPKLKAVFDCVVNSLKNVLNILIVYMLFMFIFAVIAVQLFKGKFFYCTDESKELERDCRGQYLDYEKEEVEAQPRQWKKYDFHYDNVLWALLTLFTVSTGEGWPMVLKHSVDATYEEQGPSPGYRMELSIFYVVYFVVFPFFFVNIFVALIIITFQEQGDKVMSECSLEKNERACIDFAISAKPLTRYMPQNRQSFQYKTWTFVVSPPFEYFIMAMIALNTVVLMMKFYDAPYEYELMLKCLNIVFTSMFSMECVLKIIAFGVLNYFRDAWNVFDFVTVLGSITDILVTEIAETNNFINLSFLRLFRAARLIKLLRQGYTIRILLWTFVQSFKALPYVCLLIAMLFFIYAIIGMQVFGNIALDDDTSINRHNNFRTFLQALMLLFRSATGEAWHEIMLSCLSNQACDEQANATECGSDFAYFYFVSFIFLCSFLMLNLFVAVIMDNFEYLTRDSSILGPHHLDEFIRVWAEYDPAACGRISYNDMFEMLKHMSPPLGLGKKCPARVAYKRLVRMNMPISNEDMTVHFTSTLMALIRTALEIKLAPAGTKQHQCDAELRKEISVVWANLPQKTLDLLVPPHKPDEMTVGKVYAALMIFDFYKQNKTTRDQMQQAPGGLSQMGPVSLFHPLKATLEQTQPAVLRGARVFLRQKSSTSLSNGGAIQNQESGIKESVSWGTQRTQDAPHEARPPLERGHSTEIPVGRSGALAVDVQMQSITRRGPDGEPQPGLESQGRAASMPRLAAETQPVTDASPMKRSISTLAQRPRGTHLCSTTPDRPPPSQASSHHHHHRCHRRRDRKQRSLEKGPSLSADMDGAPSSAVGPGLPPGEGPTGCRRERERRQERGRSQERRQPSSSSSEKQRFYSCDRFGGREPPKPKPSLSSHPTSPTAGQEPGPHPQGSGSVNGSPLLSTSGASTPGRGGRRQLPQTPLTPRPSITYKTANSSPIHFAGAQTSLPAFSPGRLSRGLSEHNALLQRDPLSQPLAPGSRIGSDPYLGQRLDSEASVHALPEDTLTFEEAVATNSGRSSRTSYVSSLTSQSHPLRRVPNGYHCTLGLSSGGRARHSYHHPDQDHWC
T1 sequence (P54284 whole entry partner): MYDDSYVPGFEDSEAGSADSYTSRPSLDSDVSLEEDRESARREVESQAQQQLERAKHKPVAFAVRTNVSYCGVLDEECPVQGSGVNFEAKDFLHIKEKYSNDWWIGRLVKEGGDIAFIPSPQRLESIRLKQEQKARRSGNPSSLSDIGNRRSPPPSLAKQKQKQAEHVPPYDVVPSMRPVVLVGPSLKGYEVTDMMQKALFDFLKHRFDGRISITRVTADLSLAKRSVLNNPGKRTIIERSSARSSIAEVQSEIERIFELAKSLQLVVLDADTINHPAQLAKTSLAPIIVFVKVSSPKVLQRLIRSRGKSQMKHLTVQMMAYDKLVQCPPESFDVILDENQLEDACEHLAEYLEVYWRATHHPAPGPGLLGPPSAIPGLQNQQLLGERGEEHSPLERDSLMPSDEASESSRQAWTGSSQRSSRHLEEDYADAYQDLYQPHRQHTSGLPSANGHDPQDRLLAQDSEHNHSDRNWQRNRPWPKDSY
T1 sequence (P54289 25-946 partner limits assumed): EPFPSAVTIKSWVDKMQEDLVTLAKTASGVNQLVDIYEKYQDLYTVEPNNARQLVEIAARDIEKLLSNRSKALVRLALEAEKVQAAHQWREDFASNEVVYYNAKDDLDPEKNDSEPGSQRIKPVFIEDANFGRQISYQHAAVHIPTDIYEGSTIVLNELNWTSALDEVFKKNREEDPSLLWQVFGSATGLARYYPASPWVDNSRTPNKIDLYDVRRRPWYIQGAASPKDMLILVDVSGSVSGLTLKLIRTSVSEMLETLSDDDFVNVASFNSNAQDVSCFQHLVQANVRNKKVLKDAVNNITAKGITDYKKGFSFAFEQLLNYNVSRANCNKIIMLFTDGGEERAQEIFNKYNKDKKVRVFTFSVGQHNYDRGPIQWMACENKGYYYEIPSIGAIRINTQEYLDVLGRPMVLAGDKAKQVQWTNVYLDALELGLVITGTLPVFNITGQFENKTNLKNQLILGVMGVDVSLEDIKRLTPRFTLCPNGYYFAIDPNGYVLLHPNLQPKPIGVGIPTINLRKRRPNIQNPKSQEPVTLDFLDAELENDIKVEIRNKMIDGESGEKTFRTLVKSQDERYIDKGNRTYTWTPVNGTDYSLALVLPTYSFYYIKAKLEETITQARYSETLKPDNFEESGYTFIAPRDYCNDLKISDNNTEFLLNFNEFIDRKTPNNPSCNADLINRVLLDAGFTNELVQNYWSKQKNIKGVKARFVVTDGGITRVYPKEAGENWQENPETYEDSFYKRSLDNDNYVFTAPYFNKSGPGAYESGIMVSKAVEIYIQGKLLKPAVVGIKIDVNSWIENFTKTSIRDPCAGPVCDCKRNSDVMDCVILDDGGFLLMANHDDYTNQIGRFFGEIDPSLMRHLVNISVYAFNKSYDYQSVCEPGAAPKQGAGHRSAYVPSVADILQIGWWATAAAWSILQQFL
T1 sequence (P54289 947-1103 partner limits assumed): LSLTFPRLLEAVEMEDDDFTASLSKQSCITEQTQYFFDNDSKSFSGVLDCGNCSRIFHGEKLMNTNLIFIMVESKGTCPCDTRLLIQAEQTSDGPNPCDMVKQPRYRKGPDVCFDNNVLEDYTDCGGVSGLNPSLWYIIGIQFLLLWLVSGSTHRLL

One assay addresses T1, CaV2.2 (Homo sapiens, UniProt Q00975).
T1 construct: expressed in transfected cells; host or cells: HEK293
Description: VIPR optical membrane potential assay with electrical stimulation. It is filed as cell-based.
Conditions: not given
A digest of the protocol: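 HEK293 cells stably expressing CaV2.2, stained with CC2-DMPE (10 μM final) and oxonol voltage-sensitive dyes, compound added with BaCl2. Membrane potential response evoked by 3-5 s electrical stimulation. Read as background-subtracted 460/580 nm emission ratio, response R=Rf/Ri, normalized to mibefradil positive and no-drug negative controls.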
By IC50 is commonly meant the concentration that gives 50% inhibition. Turning to `Cc1c(C(=O)N2CCC3(CC2)OCCO3)oc2ccc(S(=O)(=O)N3CCCCCC3)cc12` [compound 161], the IC50 lay in the range of 5 to 20 µM. With `Cc1c(C(=O)N2CCC3(CC2)OCCO3)[nH]c2ccc(S(=O)(=O)N3CCC(C)CC3)cc12` [compound 351], the IC50 lay within 5 to 20 µM.

On to `Cc1c(C(=O)N2CCC3(CC2)OCCO3)oc2ccc(S(=O)(=O)N3CCC(C)CC3)cc12` [compound 287], for which the IC50 lay within 5 to 20 µM.

The same assay, now with this note: Table 3, biological assay data; read-out: IC50.
Take `Cc1c(C(=O)N2CCCCC2C)[nH]c2ccc(S(=O)(=O)N3CCCCCC3)cc12` (centres unmarked) [compound 379]: the IC50 was in the range of 5 to 20 µM. As to `Cc1c(C(=O)NC(C)C)oc2ccc(S(=O)(=O)N3CCCC(C)C3)cc12` (centres unmarked) [compound 47], the IC50 fell in the range of 5 to 20 µM. For `Cc1c(C(=O)NCc2ccccc2)oc2ccc(S(=O)(=O)N3CC(C)CC(C)C3)cc12` (centres unmarked) [compound 441], the IC50 is less than 5 µM.

As to `Cc1c(C(=O)NCC2CCCO2)[nH]c2ccc(S(=O)(=O)N3CCCCCC3)cc12` (centres unmarked) [compound 68], the IC50 was 5 to 20 µM.

As for `COc1ccccc1CNC(=O)c1oc2ccc(S(=O)(=O)N3CCOCC3)cc2c1C` [compound 167], the IC50 is less than 20 µM. For the molecule `CC1CC(C)CN(S(=O)(=O)c2ccc3[nH]c(C(=O)N(C(C)C)C(C)C)cc3c2)C1` (centres unmarked) [compound 217], the IC50 was less than 5 µM. Still for that read-out and setting: next, `Cc1c(C(=O)NCC2CCOCC2)oc2ccc(S(=O)(=O)N3CCCCCC3)cc12` [compound 38]: 5 to 20 µM. Regarding `CC1CC(C)CN(S(=O)(=O)c2ccc3[nH]c(C(=O)N4CCN(C)CC4)cc3c2)C1` (centres unmarked) [compound 91], the IC50 was in the range of 5 to 20 µM. As for `CC1CC(C)CN(S(=O)(=O)c2ccc3oc(C(=O)NC4CCCC4)cc3c2)C1` (centres unmarked) [compound 122], the IC50 was less than 5 µM. Still for that read-out and setting: next, `Cc1c(C(=O)N2CC(C)CC(C)C2)oc2ccc(S(=O)(=O)N3CCCC(C)C3)cc12` (centres unmarked) [compound 233]: less than 5 µM; `Cc1c(C(=O)NC2CC2)oc2ccc(S(=O)(=O)Nc3nccs3)cc12` [compound 447]: less than 20 µM. For `Cc1c(C(=O)NC2CCCCC2)oc2ccc(S(=O)(=O)N3CC(C)CC(C)C3)cc12` (centres unmarked) [compound 62], the IC50 is less than 5 µM. Turning to `CC1CC(C)CN(S(=O)(=O)c2ccc3[nH]c(C(N)=O)cc3c2)C1` (centres unmarked) [compound 251], the IC50 lay within 5 to 20 µM. On the same count and under the same terms, then `Cc1c(C(=O)NC2CC2)oc2ccc(S(=O)(=O)Nc3cccnc3)cc12` [compound 453], with less than 20 µM. As for `CC1CCN(S(=O)(=O)c2ccc3[nH]c(C(=O)N4CCCC(C)C4)cc3c2)CC1` (centres unmarked) [compound 101], the half-maximal inhibitory concentration (IC50) is less than 5 µM. For `Cc1c(C(=O)N(C)Cc2ccccc2)oc2ccc(S(=O)(=O)N3CCC(C)CC3)cc12` [compound 464], the half-maximal inhibitory concentration (IC50) was less than 5 µM. Turning to `Cc1c(C(=O)N2CCCC(C)C2)oc2ccc(S(=O)(=O)N3CCCCC3)cc12` (centres unmarked) [compound 280], the IC50 is 5 to 20 µM. Regarding `CC1CC(C)CN(S(=O)(=O)c2ccc3[nH]c(C(=O)NCCCc4ccccc4)cc3c2)C1` (centres unmarked) [compound 323], the IC50 is less than 5 µM. On to `CC1CCN(S(=O)(=O)c2ccc3oc(C(=O)N4CCN(C)CC4)cc3c2)CC1` [compound 188], for which the IC50 is 5 to 20 µM. For `Cc1c(C(=O)N2CCCC(C)C2)oc2ccc(S(=O)(=O)N3CCOCC3)cc12` (centres unmarked) [compound 195], the IC50 was less than 20 µM. Take `CC1CC(C)CN(S(=O)(=O)c2ccc3oc(C(=O)NCCC4CCOCC4)cc3c2)C1` (centres unmarked) [compound 225]: the half-maximal inhibitory concentration (IC50) was less than 5 µM. On the same count and under the same terms, next, `CCNC(=O)c1[nH]c2ccc(S(=O)(=O)N3CC(C)CC(C)C3)cc2c1C` (centres unmarked) [compound 221]: 5 to 20 µM; `Cc1c(C(N)=O)oc2ccc(S(=O)(=O)N3CCC(C)CC3)cc12` [compound 431]: 5 to 20 µM. For the molecule `O=C(NCCC1CCOCC1)c1cc2cc(S(=O)(=O)N3CCCCCC3)ccc2o1` [compound 23], the IC50 is less than 5 µM.

Consider `Cc1c(C(=O)NC2CCCCC2)oc2ccc(S(=O)(=O)N3CCCC(C)C3)cc12` (centres unmarked) [compound 9], for which the IC50 is less than 5 µM.

`Cc1c(C(=O)NC2CCCC2)oc2ccc(S(=O)(=O)N3CCCCC3)cc12` [compound 260]: the IC50 is less than 5 µM.

With `O=C(NC1CCCC1)c1cc2cc(S(=O)(=O)N3CCCCCC3)ccc2[nH]1` [compound 41], the IC50 is 5 to 20 µM. The same measure, in the same setting: next, `Cc1c(C(=O)NC(C)C)oc2ccc(S(=O)(=O)N3CCCC(F)(F)C3)cc12` [compound 264]: less than 20 µM. Still for that read-out and setting: next, `CC1CCN(C(=O)c2cc3cc(S(=O)(=O)N4CCCCCC4)ccc3[nH]2)CC1` [compound 364]: 5 to 20 µM; `O=C(NC1CC1)c1cc2cc(S(=O)(=O)N3CCCCCC3)ccc2n1S(=O)(=O)c1ccccc1` [compound 421]: less than 5 µM.

With `CN1CCN(C(=O)c2cc3cc(S(=O)(=O)N4CCCCCC4)ccc3[nH]2)CC1` [compound 220], the IC50 was in the range of 5 to 20 µM. For the molecule `CCCN(CC1CC1)C(=O)c1cc2cc(S(=O)(=O)N3CC(C)CC(C)C3)ccc2n1C` (centres unmarked) [compound 463], the IC50 is less than 5 µM. `CC1CCN(S(=O)(=O)c2ccc3cc(C(=O)N(C)C)[nH]c3c2)CC1` [compound 380]: the IC50 is less than 20 µM. Regarding `CC1CCCN(C(=O)c2cc3cc(S(=O)(=O)N4CCCCCC4)ccc3o2)C1` (centres unmarked) [compound 170], the IC50 was less than 5 µM. On to `Cc1c(C(=O)N2CCCCC2C)oc2ccc(S(=O)(=O)N3CCCC(C)C3)cc12` (centres unmarked) [compound 61], for which the IC50 fell in the range of 5 to 20 µM. For `CC1CCN(C(=O)c2cc3cc(S(=O)(=O)N4CC(C)CC(C)C4)ccc3o2)CC1` (centres unmarked) [compound 339], the IC50 is less than 5 µM. For `CCNC(=O)c1oc2ccc(S(=O)(=O)N3CCC(C)CC3)cc2c1C` [compound 256], the IC50 was in the range of 5 to 20 µM. On the same count and under the same terms, then `Cc1c(C(=O)N2CCCC2)[nH]c2ccc(S(=O)(=O)N3CC(C)CC(C)C3)cc12` (centres unmarked) [compound 324], with less than 5 µM; and `Cc1c(C(=O)N(C)Cc2ccccc2)oc2ccc(S(=O)(=O)N3CCCCCC3)cc12` [compound 317], with less than 5 µM; and `Cc1c(C(=O)N2CCCC(C)C2)[nH]c2ccc(S(=O)(=O)N3CC(C)CC(C)C3)cc12` (centres unmarked) [compound 227], with less than 5 µM. Regarding `Cc1c(C(=O)N2CC(C)CC(C)C2)oc2ccc(S(=O)(=O)N3CCCCCC3)cc12` (centres unmarked) [compound 243], the 50% inhibitory concentration (IC50) lay within 5 to 20 µM.

Take `CC1CCN(S(=O)(=O)c2ccc3oc(C(=O)N4CCCC(C)C4)cc3c2)CC1` (centres unmarked) [compound 417]: the IC50 was in the range of 5 to 20 µM. Turning to `CC1CC(C)CN(S(=O)(=O)c2ccc3oc(C(=O)N(C(C)C)C(C)C)cc3c2)C1` (centres unmarked) [compound 137], the IC50 was less than 5 µM. Take `CC1CCN(S(=O)(=O)c2ccc3oc(C(=O)NCC4CCOCC4)cc3c2)CC1` [compound 111]: the IC50 was in the range of 5 to 20 µM. Regarding `Cc1c(C(=O)NC2CC2)oc2ccc(S(=O)(=O)N3CCC(F)(F)CC3)cc12` [compound 35], the IC50 is 5 to 20 µM.

As to `CCOC(=O)C1CCN(C(=O)c2oc3ccc(S(=O)(=O)N4CC(C)CC(C)C4)cc3c2C)CC1` (centres unmarked) [compound 336], the IC50 was less than 5 µM.

As to `CC1CC(C)CN(S(=O)(=O)c2ccc3[nH]c(C(=O)NCC4CCOCC4)cc3c2)C1` (centres unmarked) [compound 275], the IC50 was less than 5 µM.

Turning to `COc1ccccc1CNC(=O)c1oc2ccc(S(=O)(=O)N3CCCCCC3)cc2c1C` [compound 245], the IC50 lay in the range of 5 to 20 µM. On the same count and under the same terms, next, `CCOC(=O)N1CCN(C(=O)c2[nH]c3ccc(S(=O)(=O)N4CCC(C)CC4)cc3c2C)CC1` [compound 198]: 5 to 20 µM; `Cc1c(C(=O)NCc2cccnc2)oc2ccc(S(=O)(=O)N3CC(C)CC(C)C3)cc12` (centres unmarked) [compound 63]: 5 to 20 µM; `Cc1c(C(=O)N(C)C)oc2ccc(S(=O)(=O)N3CCOCC3)cc12` [compound 259]: less than 20 µM. Take `Cc1c(C(=O)NC2CC2)oc2ccc(S(=O)(=O)Nc3ncccn3)cc12` [compound 20]: the IC50 was less than 20 µM.

Test system in a further assay: not given
Experiment: not given
To be noted: neuropathic pain; cited from earlier work.
Consider `NCC1(CC(=O)O)CCCCC1` [Gabapentin], for which the “patients in whom the drug works” value is listed as 60%.
